# Experimental data taken from paper PMC9775652, “Concomitant Administration of Red Ginseng Extract with Lactic Acid Bacteria Increases the Plasma Concentration of Deglycosylated Ginsenosides in Healthy Human Subjects” (Biomolecules, 2022).
# Where two headings read alike, the source gives them in different places.
# Assays:
# [1] = Pharmacokinetic study of ginsenosides in healthy humans after repeated oral RGE with or without LAB; type: in vivo, human
# Method: A single-sequence study consisting of two periods was conducted on five healthy male subjects (body weight > 50 kg and age > 19 years) for 29 days. During the first period of the study (RGE treatment group), three pouches of RGE (30 mL, 104.1 mg of total ginsenosides) were administered to 5 subjects once daily for 14 days. On the 14th day, the subjects were admitted to the Clinical Trial Center of KNUH at 7 AM and underwent the last RGE administration at approximately 8–9 AM. Blood samples (approximately 3 mL) were collected at 0, 4, 6, 8, 10, 12, 13, 14, and 24 h after the last dose. A saline-locked angiocatheter was placed on the forearm of each subject’s hand. After discarding 1 mL of blood derived from the catheter, 3 mL of blood was drawn into a vacutainer tube containing heparin and centrifuged at 3000× g for 10 min. The supernatant plasma samples were stored at −80 °C until ginsenoside analysis.
# In the second half of the study (RGE + LAB treatment group), 3 pouches of RGE (30 mL, 104.1 mg of total ginsenosides) and 1 pouch of LAB (1 billion CFU/2 g) were co-administered once daily for 14 days. On the […], the subjects were admitted to the Clinical Trial Center of KNUH at 7 AM and received the last red ginseng dose at approximately 8–9 AM. Blood samples (approximately 3 mL) were withdrawn at 0, 4, 6, 8, 10, 12, 13, 14, and 24 h intervals after the last dose and centrifuged at 3000× g for 10 min; the supernatant plasma samples were stored at −80 °C.
# Briefly, to analyze GRb1, GRb2, GRc, GRd, GRe, GRf, GRg1, GRg3, GF1, and GF2, 400 μL of an internal standard (IS; 0.05 ng/mL berberine in methanol) was added to 100 μL of plasma. The mixture was vortexed for 15 min and centrifuged at 16,000× g for 5 min. After centrifugation, 400 μL of the supernatant was evaporated using a speed-dry vacuum concentrator (Christ, Osterode am Harz, Germany). The residue was reconstituted using 200 μL of 70% methanol supplemented with 0.1% formic acid, and a 10 μL aliquot was injected into the LC-MS/MS system. Chromatographic separation was performed using a Polar RP column (150 × 2.0 mm, 4.0 μm particle size; Phenomenex, Torrance, CA, USA) using a mobile phase consisting of 0.1% formic acid in water (phase A) and 0.1% formic acid in methanol (phase B). The following elution gradient was used: 69% of phase B for 0–2.0 min, 69–85% of phase B for 2.0–4.0 min, and 85–69% of phase B for 6.0–6.5 min. The flow rate was 0.27 mL/min.
# The mixture was vortexed for 10 min and centrifuged at 16,000× g for 5 min. After centrifugation, the samples were frozen at −80 °C for 4 h. The upper layer was transferred to a clean tube and evaporated. The residue was reconstituted using 200 μL of 80% methanol supplemented with 0.1% formic acid, and a 10 μL aliquot was injected into the LC-MS/MS system. Chromatographic separation was performed using a Luna C18 column (150 × 2.0 mm, 3.0 μm particle size; Phenomenex, Torrance, CA, USA) and using a mobile phase consisting of water containing 0.1% formic acid: methanol containing 0.1% formic acid = 8:92 (v/v) at a flow rate of 0.15 mL/min.
# The quantification of ginsenosides was carried out using multiple reaction monitoring in positive ionization mode, as previously described.
# Finally, pharmacokinetic parameters were calculated using non-compartmental methods (WinNonlin version 5.1; Pharsight Co., Certara, NJ, USA). Statistical analysis was performed by Student’s t-test to compare the two groups using IBM SPSS Statistics for Windows (version 25.0; IBM Corp., Armonk, NY, USA). Differences were considered significant at p < 0.05.
# [2] = target: T1, P-gp (Homo sapiens, UniProt P08183); assay: Transport of ginsenosides in P-gp-overexpressing LLC-PK1-P-gp cells; type: in vitro ADME
# T1 construct: host or cells: LLC-PK1-P-gp cells (passage no. 25–28)
# T1 sequence (P08183 whole entry): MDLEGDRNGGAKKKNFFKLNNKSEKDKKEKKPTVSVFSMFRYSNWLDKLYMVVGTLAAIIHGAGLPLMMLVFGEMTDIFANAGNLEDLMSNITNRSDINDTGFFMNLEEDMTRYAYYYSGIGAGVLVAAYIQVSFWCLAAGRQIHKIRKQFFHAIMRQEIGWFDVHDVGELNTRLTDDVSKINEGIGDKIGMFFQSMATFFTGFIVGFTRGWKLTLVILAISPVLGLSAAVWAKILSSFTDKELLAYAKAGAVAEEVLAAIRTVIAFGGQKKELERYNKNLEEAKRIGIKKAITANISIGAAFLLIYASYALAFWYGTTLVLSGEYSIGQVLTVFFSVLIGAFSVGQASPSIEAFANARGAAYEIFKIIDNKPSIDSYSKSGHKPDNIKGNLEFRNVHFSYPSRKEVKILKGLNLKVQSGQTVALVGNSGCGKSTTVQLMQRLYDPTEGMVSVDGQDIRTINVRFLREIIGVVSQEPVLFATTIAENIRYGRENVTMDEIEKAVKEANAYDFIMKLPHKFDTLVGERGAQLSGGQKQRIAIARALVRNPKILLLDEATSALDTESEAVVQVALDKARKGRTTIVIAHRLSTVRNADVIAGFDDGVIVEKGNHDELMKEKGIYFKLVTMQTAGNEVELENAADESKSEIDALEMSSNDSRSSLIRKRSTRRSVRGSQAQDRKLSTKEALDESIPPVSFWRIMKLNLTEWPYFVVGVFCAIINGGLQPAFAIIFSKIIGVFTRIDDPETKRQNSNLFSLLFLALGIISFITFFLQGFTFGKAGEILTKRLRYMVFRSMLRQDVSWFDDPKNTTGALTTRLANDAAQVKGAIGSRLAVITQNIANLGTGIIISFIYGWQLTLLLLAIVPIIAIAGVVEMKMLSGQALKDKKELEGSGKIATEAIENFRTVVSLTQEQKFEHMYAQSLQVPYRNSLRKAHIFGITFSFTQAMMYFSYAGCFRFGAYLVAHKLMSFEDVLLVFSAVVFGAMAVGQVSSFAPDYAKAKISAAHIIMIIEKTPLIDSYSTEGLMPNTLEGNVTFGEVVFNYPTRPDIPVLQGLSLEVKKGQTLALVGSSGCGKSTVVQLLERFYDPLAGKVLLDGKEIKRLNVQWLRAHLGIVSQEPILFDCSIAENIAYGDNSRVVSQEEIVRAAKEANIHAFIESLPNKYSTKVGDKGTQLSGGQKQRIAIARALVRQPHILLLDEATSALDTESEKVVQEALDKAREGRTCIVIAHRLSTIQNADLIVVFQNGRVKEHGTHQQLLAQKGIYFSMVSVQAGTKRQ
# Method: LLC-PK1-P-gp cells (passage no. 25–28) were seeded onto collagen-coated permeable support (1.0 μm pore size) in 24-well plates at a density of 2.5 × 10^4 cells/insert and grown for 5 days with TEER values of over 500 Ω·cm^2 [24]. The A to B transport and B to A transport of GRg3, GRh2, CK, PPD, GRg1, GRh1, and PPT (20 μM each) were measured as previously described. The concentration dependency in the B to A transport of GRh2, CK, PPD, and PPT was measured in the range of 6.25–200 μM for GRh2, CK, PPD, and PPT.
# (§1) For the transport study of ginsenosides in CaCo-2 cells and LLC-PK1-P-gp cells, the ginsenoside transport rate in the A to B or B to A directions was calculated from the slope of the regression line from the mean transported amounts versus time plot. The apparent permeability (Papp) was calculated using Equation (1). (1) Papp (×10^−6 cm/s)=transport rate (nmol/min)/concentration(μM)×area(cm^2)×60s
# (§2) The efflux ratio was calculated by dividing the Papp of ginsenosides from the B to A direction by that from the A to B direction.
# To measure the kinetic parameters of the concentration dependence on the P-gp-mediated ginsenoside efflux, the ginsenoside transport rate in the B to A direction (ν) versus the ginsenoside concentration (S) plot was fitted in the Michaelis–Menten Equation (2) using Sigma Plot (version 12.0, Systat Software Inc. Chicago, IL, USA). (2) ν=Vmax×S/Km+S
# [3] = tested on: CaCo-2 cells; assay: Transport (permeability) of ginsenosides in CaCo-2 cell monolayers; type: in vitro ADME; details: Caco-2
# Method: (§3) CaCo-2 cells (passage no 41–43) were seeded onto collagen-coated permeable support (1.0 μm pore size) in a 24-well plate at a density of 2.5 × 10^4 cells/insert and cultured for 21 days in Dulbecco’s modified eagle’s medium supplemented with 10% fetal bovine serum, 1% non-essential amino acids, and 1% penicillin-streptomycin at 37 °C in a humidified atmosphere (5% CO2/95% air). After confirming that the transepithelial electrical resistance (TEER) of the CaCo-2 cell monolayer was over 400 Ω·cm^2, Apical to basal (A to B) transport and B to A transport of ginsenosides using 50 µM, GRb1 was investigated as previously described. The same permeability study was performed using 50 µM GRb2, GRc, GRd, GRg3, GRh2, GF2, CK, PPD, GRe, GRf, GRg1, GRh1, GF1, or PPT.
# as §1, §2
# [4] = tested on: LAB; assay: In vitro RGE fermentation with LAB; type: in vitro ADME
# Method: To identify the effects of LAB on ginsenoside metabolism, an in vitro fermentation study was performed according to the method of Jeon et al., with slight modifications. Briefly, RGE (10 mL, 1 pouch) and 2 g LAB (containing 1 billion CFU) were suspended in 10 mL autoclaved MRS broth (550 mg broth powder dissolved in 10 mL water). For the 15 ginsenosides, individual ginsenosides (10 μM each) and 2 g of LAB were suspended in 20 mL of autoclaved MRS broth (550 mg broth powder dissolved in 20 mL water). The mixture was incubated for 7 days in a shaking incubator at 37 °C and 300 rpm, and a 0.1 mL aliquot of the incubation mixture was collected on days 0, 3, 5, and 7. The incubation medium was diluted 100-fold with distilled water and stored at −80 °C to analyze ginsenosides using the LC-MS/MS system.
# To measure the metabolic activity of ginsenosides, the formation rate of ginsenosides (pmol/day) was calculated by dividing the slope of the regression line by the amount of deglycosylated ginsenosides versus the incubation time plot by the initial concentration of individual ginsenosides.
# [5] = in rats; cited from earlier work
# [6] = Transport (permeability) of ginsenosides in CaCo-2 cell monolayers; type: in vitro ADME; details: human
# Method: as §3, §1, §2
# [7] = CaCo-2 cell monolayers, 50 µM ginsenoside, read-out: A to B Papp
# [8] = RGE incubated with LAB (1 billion CFU) for 7 days at 37 °C, result in words
Compound,"Cmax ([1]; human, in vivo, po) [ng/mL]","MRT ([1]; human, in vivo, po) [h]","Tmax ([1]; human, in vivo, po) [h]","AUC ([1]; human, in vivo, po, 104.1 mg) [ng·h/mL]",A to B Papp [3],Relative abundance / metabolic activity following fermentation of RGE with LAB [4],"Papp A→B at 50 µM [6, 7] [×10⁻⁶ cm/s]","Relative abundance / metabolic activity following fermentation of RGE with LAB [4, 8]",other results
CC(C)=CCC[C@](C)(O[C@@H]1O[C@H](CO[C@@H]2O[C@@H](CO)[C@H](O)[C@H]2O)[C@@H](O)[C@H](O)[C@H]1O)[C@H]1CC[C@]2(C)[C@@H]1[C@H](O)C[C@@H]1[C@@]3(C)CC[C@H](O[C@@H]4O[C@H](CO)[C@@H](O)[C@H](O)[C@H]4O[C@@H]4O[C@H](CO)[C@@H](O)[C@H](O)[C@H]4O)C(C)(C)[C@@H]3CC[C@]12C [GRc],5.1 ± 2.4,18.0 ± 1.2,6.2 ± 4.0,118.4 ± 58.2,below 0.3 × 10^−6 cm/s,marked decrease,–,–,–
"CC(C)=CCC[C@](C)(O[C@@H]1O[C@H](CO[C@@H]2O[C@H](CO)[C@@H](O)[C@H](O)[C@H]2O)[C@@H](O)[C@H](O)[C@H]1O)[C@H]1CC[C@]2(C)[C@@H]1[C@H](O)C[C@@H]1[C@@]3(C)CC[C@H](O[C@@H]4O[C@H](CO)[C@@H](O)[C@H](O)[C@H]4O[C@@H]4O[C@H](CO)[C@@H](O)[C@H](O)[C@H]4O)C(C)(C)[C@@H]3CC[C@]12C [GRb1, ginsenoside Rb1]",–,–,–,–,–,–,< 0.3,marked decrease,"Oral bioavailability (BA) [5]: less than 5%; Change of AUC / pharmacokinetic parameters by RGE and LAB co-administration ([1]; RGE + LAB group versus RGE group, humans, result in words): not different; Cmax ([1]; male, human, plasma, po, 104.1 mg total ginsenosides/day, RGE group, human plasma, RGE oral 14 days, mean ± SD, n = 5, read-out: Cmax): 7.1 ± 3.2 ng/mL; MRT ([1]; male, human, plasma, po, 104.1 mg total ginsenosides/day, RGE group, human plasma, RGE oral 14 days, mean ± SD, n = 5, read-out: MRT): 18.3 ± 1.1 h; Tmax ([1]; male, human, plasma, po, 104.1 mg total ginsenosides/day, RGE group, human plasma, RGE oral 14 days, mean ± SD, n = 5, read-out: Tmax): 5.3 ± 4.6 h; Cmax ([1]; male, human, plasma, po, RGE + LAB group, human plasma, oral 14 days, mean ± SD, n = 5, read-out: Cmax): 6.2 ± 2.9 ng/mL; MRT ([1]; male, human, plasma, po, RGE + LAB group, human plasma, oral 14 days, mean ± SD, n = 5, read-out: MRT): 16.9 ± 0.5 h; Tmax ([1]; male, human, plasma, po, RGE + LAB group, human plasma, oral 14 days, mean ± SD, n = 5, read-out: Tmax): 6.8 ± 1.1 h; AUC ([1]; male, RGE + LAB group, human plasma, RGE plus LAB (1 billion CFU/2 g) once daily oral 14 days, AUC 0 to 24 h, mean ± SD, n = 5, read-out: AUC): 164 ± 77.3 ng·h/mL; AUC ([1]; male, RGE group, human plasma, RGE once daily oral 14 days (104.1 mg total ginsenosides/day), AUC 0 to 24 h, mean ± SD, n = 5, read-out: AUC): 185 ± 80.6 ng·h/mL"
CC(C)=CCCC(C)(O)C1CCC2(C)C1C(O)CC1C3(C)CCC(O)C(C)(C)C3C(OC3OC(CO)C(O)C(O)C3O)CC12C (centres unmarked) [GRh1],–,–,–,–,–,–,< 0.3,significantly increased,"efflux ratio at 20 μM ([2]; pig, LLC-PK1, LLC-PK1-P-gp cells, 20 μM, B to A Papp divided by A to B Papp, read-out: ER): 0.9; Papp A→B at 20 μM ([2]; pig, LLC-PK1-P-gp cells, 20 μM, mean ± SD, n = 3, read-out: A to B permeability): 0.21 ± 0.09 ×10⁻⁶ cm/s; Papp B→A at 20 μM ([2]; pig, LLC-PK1-P-gp cells, 20 μM, mean ± SD, n = 3, read-out: B to A permeability): 0.18 ± 0.01 ×10⁻⁶ cm/s"
CC(C)=CCCC(C)(OC1OC(CO)C(O)C(O)C1O)C1CCC2(C)C1C(O)CC1C3(C)CCC(O)C(C)(C)C3C(O)CC12C (centres unmarked) [GF1],–,–,–,–,–,–,–,remained unchanged,Papp A→B at 50 µM ([6]; Caco-2): < 0.3 ×10⁻⁶ cm/s

# The next lines start with results.
"Cmax ([1]; human, in vivo, po) [ng/mL]","MRT ([1]; human, in vivo, po) [h]","Tmax ([1]; human, in vivo, po) [h]","AUC ([1]; human, in vivo, po, 104.1 mg) [ng·h/mL]",A to B Papp [3],Relative abundance / metabolic activity following fermentation of RGE with LAB [4],Compound,"Papp A→B at 50 µM [6, 7] [×10⁻⁶ cm/s]","Relative abundance / metabolic activity following fermentation of RGE with LAB [4, 8]",other results
7.2 ± 4.8,7.6 ± 2.8,7.2 ± 3.0,94.1 ± 50.0,below 0.3 × 10^−6 cm/s,remained unchanged,CC(C)=CCC[C@](C)(O)[C@H]1CC[C@]2(C)[C@@H]1[C@H](O)C[C@@H]1[C@@]3(C)CC[C@H](O[C@@H]4O[C@H](CO)[C@@H](O)[C@H](O)[C@H]4O[C@@H]4O[C@H](CO)[C@@H](O)[C@H](O)[C@H]4O)C(C)(C)[C@@H]3CC[C@]12C [GRg3],–,–,A to B permeability ([2]; LLC-PK1): 0.07±0.01 × 10^−6 cm/s; B to A permeability ([2]; LLC-PK1): 0.07±0.01 × 10^−6 cm/s
–,–,–,–,below 0.3 × 10^−6 cm/s,marked decrease,CC(C)=CCC[C@](C)(O[C@@H]1O[C@H](CO)[C@@H](O)[C@H](O)[C@H]1O)[C@H]1CC[C@]2(C)[C@@H]1[C@H](O)C[C@@H]1[C@@]3(C)CC[C@H](O)C(C)(C)[C@@H]3[C@@H](O[C@@H]3O[C@H](CO)[C@@H](O)[C@H](O)[C@H]3O[C@@H]3O[C@@H](C)[C@H](O)[C@@H](O)[C@H]3O)C[C@]12C [GRe],–,–,–
